Measurements as given in ChEMBL document CHEMBL1201862, “PubChem BioAssay data set” (2004).
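Five compound concentrations were applied to cells in 96-well plates for 48 hours; endpoints were derived by simple linear interpolation of the resulting dose-response curve. GI50 = concentration required for 50% inhibition of growth.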 Active and inactive are the calls of the source. Cut-off read from the data, not from the text of the source: active = GI50 up to about 1.1 µM and inactive = higher.

Key:
Assay in all cases: inhibition of tumour cell growth, NCI panel, 48 h
NCI-H460 = tested on: NCI-H460
OVCAR-5 = tested on: OVCAR-5
MOLT-4 = tested on: MOLT-4
NCI-H522 = tested on: NCI-H522
OVCAR-3 = tested on: OVCAR-3
RXF 393 = tested on: RXF 393
DMS-273 = tested on: DMS-273
HL-60 = tested on: HL-60
K562 = tested on: K562
SK-OV-3 = tested on: SK-OV-3
UACC-257 = tested on: UACC-257
COLO 205 = tested on: COLO 205
SR = tested on: SR
HCT-15 = tested on: HCT-15
ACHN = tested on: ACHN
U-251 = tested on: U-251
SW-620 = tested on: SW-620
786-0 = tested on: 786-0
SF-268 = tested on: SF-268
OVCAR-4 = tested on: OVCAR-4
IGROV-1 = tested on: IGROV-1
UO-31 = tested on: UO-31
OVCAR-8 = tested on: OVCAR-8
KM-20L2 = tested on: KM-20L2
KM12 = tested on: KM12
M14 = tested on: M14
SF-295 = tested on: SF-295
RPMI-8226 = tested on: RPMI-8226
CCRF-CEM = tested on: CCRF-CEM
LXFL 529 = tested on: LXFL 529
DMS-114 = tested on: DMS-114
SN12C = tested on: SN12C
HT-29 = tested on: HT-29
HCT-116 = tested on: HCT-116
HCC 2998 = tested on: HCC 2998
HOP-92 = tested on: HOP-92
NCI-H226 = tested on: NCI-H226
A549 = tested on: A549
M19-MEL = tested on: M19-MEL
TK-10 = tested on: TK-10
LOX IMVI = tested on: LOX IMVI
SF-539 = tested on: SF-539
NCI-H23 = tested on: NCI-H23
CAKI-1 = tested on: CAKI-1
Malme-3M = tested on: Malme-3M
SNB-75 = tested on: SNB-75
EKVX = tested on: EKVX
DLD-1 = tested on: DLD-1
RXF 631 = tested on: RXF 631
XF498 = tested on: XF498
SK-MEL-2 = tested on: SK-MEL-2
SNB-19 = tested on: SNB-19
HOP-62 = tested on: HOP-62
A498 = tested on: A498
SNB-78 = tested on: SNB-78
UACC-62 = tested on: UACC-62
SK-MEL-28 = tested on: SK-MEL-28
SK-MEL-5 = tested on: SK-MEL-5

In the case of `CN(Cc1ccccc1)C(=O)c1ccccc1C(=O)O`, the GI50 (NCI-H460) is reported as > 100 µM (inactive), the GI50 (OVCAR-5) is reported as > 100 µM (inactive) and the GI50 (MOLT-4) is reported as > 100 µM (inactive). For the same compound, the GI50 (NCI-H522) was > 100 µM (inactive), the GI50 (OVCAR-3) was > 100 µM (inactive) and the GI50 (RXF 393) was > 100 µM (inactive). The GI50 (DMS-273) was > 100 µM (inactive), the GI50 (HL-60) was > 100 µM (inactive) and the GI50 (K562) was > 100 µM (inactive). The GI50 (SK-OV-3) was > 100 µM (inactive), the GI50 (UACC-257) was > 100 µM (inactive) and the GI50 (COLO 205) was > 100 µM (inactive). The GI50 (SR) was > 100 µM (inactive), the GI50 (HCT-15) was > 100 µM and the GI50 (ACHN) was > 100 µM (inactive). The GI50 (U-251) was > 100 µM (inactive), the GI50 (SW-620) was > 100 µM (inactive) and the GI50 (786-0) was > 100 µM (inactive). The GI50 (SF-268) was > 100 µM (inactive), the GI50 (OVCAR-4) was > 100 µM (inactive) and the GI50 (IGROV-1) was > 100 µM (inactive). For the same compound, the GI50 (UO-31) was > 100 µM (inactive), the GI50 (OVCAR-8) was > 100 µM (inactive) and the GI50 (KM-20L2) was > 100 µM (inactive). The GI50 (KM12) was > 100 µM (inactive), the GI50 (M14) was > 100 µM (inactive) and the GI50 (SF-295) was > 100 µM (inactive). For the same compound, the GI50 (RPMI-8226) was > 100 µM (inactive), the GI50 (CCRF-CEM) was > 100 µM (inactive) and the GI50 (LXFL 529) was > 100 µM (inactive). The GI50 (DMS-114) was > 100 µM (inactive), the GI50 (SN12C) was > 100 µM (inactive) and the GI50 (HT-29) was > 100 µM (inactive). For the same compound, the GI50 (HCT-116) was > 100 µM (inactive), the GI50 (HCC 2998) was > 100 µM (inactive) and the GI50 (HOP-92) was > 100 µM (inactive). The GI50 (NCI-H226) was > 100 µM (inactive), the GI50 (A549) was > 100 µM (inactive) and the GI50 (M19-MEL) was > 100 µM (inactive). For the same compound, the GI50 (TK-10) was > 100 µM (inactive), the GI50 (LOX IMVI) was > 100 µM (inactive) and the GI50 (SF-539) was > 100 µM (inactive). The GI50 (NCI-H23) was > 100 µM (inactive), the GI50 (CAKI-1) was > 100 µM (inactive) and the GI50 (Malme-3M) was > 100 µM (inactive). The GI50 (SNB-75) was > 100 µM (inactive), the GI50 (EKVX) was > 100 µM (inactive) and the GI50 (DLD-1) was > 100 µM (inactive). The GI50 (RXF 631) was > 100 µM (inactive), the GI50 (XF498) was > 100 µM (inactive) and the GI50 (SK-MEL-2) was > 100 µM (inactive). The GI50 (SNB-19) was > 100 µM (inactive).

With `CN1C(=O)C(C)(C)NS1(=O)=O` the GI50 (NCI-H460) was > 100 µM (inactive), the GI50 (OVCAR-5) was > 100 µM (inactive) and the GI50 (MOLT-4) was > 100 µM (inactive). The GI50 (OVCAR-3) was > 100 µM (inactive), the GI50 (RXF 393) was > 100 µM (inactive) and the GI50 (DMS-273) was > 100 µM (inactive). For the same compound, the GI50 (HL-60) was > 100 µM (inactive), the GI50 (K562) was > 100 µM (inactive) and the GI50 (SK-OV-3) was > 100 µM (inactive). For the same compound, the GI50 (UACC-257) was > 100 µM (inactive), the GI50 (COLO 205) was > 100 µM (inactive) and the GI50 (HOP-62) was > 100 µM (inactive). For the same compound, the GI50 (HCT-15) was > 100 µM, the GI50 (ACHN) was > 100 µM (inactive) and the GI50 (U-251) was > 100 µM (inactive). For the same compound, the GI50 (SW-620) was > 100 µM (inactive), the GI50 (786-0) was > 100 µM (inactive) and the GI50 (SF-268) was > 100 µM (inactive). For the same compound, the GI50 (OVCAR-4) was > 100 µM (inactive), the GI50 (IGROV-1) was > 100 µM (inactive) and the GI50 (UO-31) was > 100 µM (inactive). For the same compound, the GI50 (OVCAR-8) was > 100 µM (inactive), the GI50 (KM-20L2) was > 100 µM (inactive) and the GI50 (KM12) was > 100 µM (inactive). The GI50 (M14) was > 100 µM (inactive), the GI50 (A498) was > 100 µM (inactive) and the GI50 (SF-295) was > 100 µM (inactive). The GI50 (RPMI-8226) was > 100 µM (inactive), the GI50 (CCRF-CEM) was > 100 µM (inactive) and the GI50 (SNB-78) was > 100 µM (inactive). For the same compound, the GI50 (LXFL 529) was > 100 µM (inactive), the GI50 (DMS-114) was > 100 µM (inactive) and the GI50 (UACC-62) was > 100 µM (inactive). The GI50 (SN12C) was > 100 µM (inactive), the GI50 (HT-29) was > 100 µM (inactive) and the GI50 (HCT-116) was > 100 µM (inactive). For the same compound, the GI50 (HCC 2998) was > 100 µM (inactive), the GI50 (SK-MEL-28) was > 100 µM (inactive) and the GI50 (A549) was > 100 µM (inactive). The GI50 (M19-MEL) was > 100 µM (inactive), the GI50 (SK-MEL-5) was > 100 µM (inactive) and the GI50 (TK-10) was > 100 µM (inactive). The GI50 (LOX IMVI) was > 100 µM (inactive), the GI50 (SF-539) was > 100 µM (inactive) and the GI50 (NCI-H23) was > 100 µM (inactive). The GI50 (CAKI-1) was > 100 µM (inactive), the GI50 (Malme-3M) was > 100 µM (inactive) and the GI50 (SNB-75) was > 100 µM (inactive). The GI50 (EKVX) was > 100 µM (inactive), the GI50 (DLD-1) was > 100 µM (inactive) and the GI50 (RXF 631) was > 100 µM (inactive). The GI50 (XF498) was > 100 µM (inactive), the GI50 (SK-MEL-2) was > 100 µM (inactive) and the GI50 (SNB-19) was > 100 µM (inactive).
